Assay results: patent US3956291A, “7-Thioacetamido cephalosporanic acid derivatives” (American Home Products Corporation, priority 1974, dated 1976)
Converted amounts (≈) assume the structure as drawn. Like-named read-outs stand apart in the source and are kept apart here.

Legend:
Assay in all cases: agar serial dilution test, minimum inhibitory concentration
Assay type in all cases: cell-based
escherichia coli = test system: escherichia coli
Source text: (§1) The compounds of this invention are useful for the treatment of bacterial infections amenable to treatment by cephalosporins. […] In accordance with the results obtained with the antibacterial compounds of this invention, their usefulness is established in the fields of comparative pharmacology and microbiology for the purpose of inhibiting the growth of undesirable bacterial colonies. […]

bacillus subtilis = conditions: Bacillus subtilis; BA SU strain 6633
Source text: as §1

Staphylococcus aureus = conditions: Staphylococcus aureus
Source text: as §1

proteus vulgaris = conditions: PR VU strain 6896, read-out: Minimum Inhibitory Concentration
Source text: as §1

salmonella paratyphi = conditions: Salmonella enterica, read-out: Minimum Inhibitory Concentration
Source text: as §1

bordetella brochiseptica = conditions: BO BR strain 4617
Source text: as §1

neisseria catarrhalis = test system: neisseria catarrhalis
Source text: as §1

klebsiella pneumoniae = test system: klebsiella pneumoniae
Source text: as §1

herellea species = conditions: HE SP strain 9955
Source text: (§2) The compounds of this invention are useful for the treatment of bacterial infections amenable to treatment by cephalosporins. […] In accordance with the results obtained with the antibacterial compounds of this invention, their usefulness is established in the fields of comparative pharmacology and microbiology for the purpose of inhibiting the growth of undesirable bacterial colonies.
(§3) The nmr spectra described in the following examples pertains to the spectra obtained upon exchanging acidic hydrogens with deuterium and are described in ppm (δ). The small amount of water and/or solvent carried into the products is readily removed by gently heating the material under vacuum. […]

pseudomones aeruginosa = conditions: PS AE strain 10145
Source text: as §2, §3

escherichia intermedia = conditions: Citrobacter intermedius; ES IN strain 65-1
Source text: as §2, §3

enterobacter aerogenes = conditions: Klebsiella aerogenes; EN AE strain 13048
Source text: as §2, §3

[1] = read-out: Minimum Inhibitory Concentration
[2] = NE CA strain 8193, read-out: Minimum Inhibitory Concentration
[3] = KL PN strain 10031, read-out: Minimum Inhibitory Concentration

Structure (SMILES): CC(=O)OCC1=C(C(=O)O)N2C(=O)[C@@H](NC(=O)CSC(SCC#N)=C(C#N)C#N)[C@H]2SC1 [Example 2, 7-(2-[2,2-Dicyano-1-(cyanomethylthio)ethenylthio]acetamido)cephalosporanic acid]
- MIC (escherichia coli; ES CO strain 920): 250 µg/mL (≈ 507 µM)
- MIC (escherichia coli; ES CO strain 9637): 31.3 µg/mL (≈ 63.4 µM)
- MIC (bacillus subtilis): 0.061 µg/mL (≈ 0.124 µM)
- MIC (Staphylococcus aureus; ST AU strain 53-180): 1.95 µg/mL (≈ 3.95 µM)
- MIC (Staphylococcus aureus; ST AU strain 6538P): 0.488 µg/mL (≈ 0.989 µM)
- MIC (Staphylococcus aureus; ST AU strain CHP): 1.95 µg/mL (≈ 3.95 µM)
- MIC (Staphylococcus aureus; ST AU strain Smith): 0.488 µg/mL (≈ 0.989 µM)
- MIC (proteus vulgaris): 31.3 µg/mL (≈ 63.4 µM)
- MIC (salmonella paratyphi): 15.6 µg/mL (≈ 31.6 µM)
- MIC (bordetella brochiseptica): 62.5 µg/mL (≈ 127 µM)
- MIC (neisseria catarrhalis; [1]): 15.6 µg/mL (≈ 31.6 µM)
- MIC (klebsiella pneumoniae; [1]): 15.6 µg/mL (≈ 31.6 µM)
- MIC (herellea species): 250 µg/mL (≈ 507 µM)

Structure (SMILES): CC(=O)OCC1=C(C(=O)O)N2C(=O)[C@@H](NC(=O)CSC(=C[N+](=O)[O-])SCC#N)[C@H]2SC1 [Example 6, 7-[2-(1-Cyanomethylthio-2-nitroethenylthio)acetamido]cephalosporanic acid]
- MIC (escherichia coli; ES CO strain 920): 125 µg/mL (≈ 256 µM)
- MIC (escherichia coli; ES CO strain 9637): 62.5 µg/mL (≈ 128 µM)
- MIC (bacillus subtilis): 0.122 µg/mL (≈ 0.25 µM)
- MIC (Staphylococcus aureus; ST AU strain 53-180): 3.9 µg/mL (≈ 7.98 µM)
- MIC (Staphylococcus aureus; ST AU strain 6538P): 0.976 µg/mL (≈ 2 µM)
- MIC (Staphylococcus aureus; ST AU strain CHP): 3.9 µg/mL (≈ 7.98 µM)
- MIC (Staphylococcus aureus; ST AU strain Smith): 0.976 µg/mL (≈ 2 µM)
- MIC (proteus vulgaris): 31.3 µg/mL (≈ 64.1 µM)
- MIC (salmonella paratyphi): 7.81 µg/mL (≈ 16 µM)
- MIC (bordetella brochiseptica): 125 µg/mL (≈ 256 µM)
- MIC (neisseria catarrhalis; [2]): 62.5 µg/mL (≈ 128 µM)
- MIC (klebsiella pneumoniae; [3]): 62.5 µg/mL (≈ 128 µM)
- MIC (herellea species): 125 µg/mL (≈ 256 µM)
- MIC (pseudomones aeruginosa): 250 µg/mL (≈ 512 µM)
- MIC (escherichia intermedia): 250 µg/mL (≈ 512 µM)

Structure (SMILES): CC(=O)OCC1=C(C(=O)O)N2C(=O)[C@@H](NC(=O)CSC(=NS(C)(=O)=O)SCC#N)[C@H]2SC1 [Example 14, 7-[2-[(cyanomethylthio)(methylsulfonylimino)methylthio]acetamido)cephalosporanic acid]
- MIC (escherichia coli; ES CO strain 920): 125 µg/mL (≈ 239 µM)
- MIC (escherichia coli; ES CO strain 9637): 125 µg/mL (≈ 239 µM)
- MIC (bacillus subtilis): 0.244 µg/mL (≈ 0.467 µM)
- MIC (Staphylococcus aureus; ST AU strain 53-180): 7.81 µg/mL (≈ 14.9 µM)
- MIC (Staphylococcus aureus; ST AU strain 6538P): 1.95 µg/mL (≈ 3.73 µM)
- MIC (Staphylococcus aureus; ST AU strain CHP): 7.81 µg/mL (≈ 14.9 µM)
- MIC (Staphylococcus aureus; ST AU strain Smith): 1.95 µg/mL (≈ 3.73 µM)
- MIC (proteus vulgaris): 31.3 µg/mL (≈ 59.9 µM)
- MIC (salmonella paratyphi): 15.6 µg/mL (≈ 29.9 µM)
- MIC (bordetella brochiseptica): 62.5 µg/mL (≈ 120 µM)
- MIC (neisseria catarrhalis; [2]): 125 µg/mL (≈ 239 µM)
- MIC (klebsiella pneumoniae; [3]): 31.3 µg/mL (≈ 59.9 µM)
- MIC (herellea species): 250 µg/mL (≈ 478 µM)
- MIC (pseudomones aeruginosa): 125 µg/mL (≈ 239 µM)

Structure (SMILES): CC(=O)OCC1=C(C(=O)O)N2C(=O)[C@@H](NC(=O)CSC(=NC#N)SCc3ccc(Cl)cc3)[C@H]2SC1 [Example 18, 7-[2-[(4-Chlorophenylmethylthio) (cyanoimino)methylthio]acetamido]cephalosporanic acid]
- MIC (escherichia coli; ES CO strain 920): 250 µg/mL (≈ 450 µM)
- MIC (escherichia coli; ES CO strain 9637): 250 µg/mL (≈ 450 µM)
- MIC (bacillus subtilis): 0.488 µg/mL (≈ 0.879 µM)
- MIC (Staphylococcus aureus; ST AU strain 53-180): 3.9 µg/mL (≈ 7.03 µM)
- MIC (Staphylococcus aureus; ST AU strain 6538P): 1.95 µg/mL (≈ 3.51 µM)
- MIC (Staphylococcus aureus; ST AU strain CHP): 7.81 µg/mL (≈ 14.1 µM)
- MIC (Staphylococcus aureus; ST AU strain Smith): 1.95 µg/mL (≈ 3.51 µM)
- MIC (proteus vulgaris): 62.5 µg/mL (≈ 113 µM)
- MIC (salmonella paratyphi): 31.3 µg/mL (≈ 56.4 µM)
- MIC (bordetella brochiseptica): 125 µg/mL (≈ 225 µM)
- MIC (neisseria catarrhalis; [2]): 250 µg/mL (≈ 450 µM)
- MIC (klebsiella pneumoniae; [3]): 125 µg/mL (≈ 225 µM)

Structure (SMILES): CC(=O)OCC1=C(C(=O)O)N2C(=O)[C@@H](NC(=O)CSC(=NC#N)SCC#N)[C@H]2SC1 [Example 7, 7-[2-[(cyanoimino) (cyanomethylthio)methylthio]acetamido]cephalosporanic acid]
- MIC (escherichia coli; ES CO strain 9637): 31.3 µg/mL (≈ 66.7 µM)
- MIC (bacillus subtilis): 0.061 µg/mL (≈ 0.13 µM)
- MIC (Staphylococcus aureus; ST AU strain 53-180): 0.976 µg/mL (≈ 2.08 µM)
- MIC (Staphylococcus aureus; ST AU strain 6538P): 0.488 µg/mL (≈ 1.04 µM)
- MIC (Staphylococcus aureus; ST AU strain CHP): 195 µg/mL (≈ 415 µM)
- MIC (Staphylococcus aureus; ST AU strain Smith): 0.488 µg/mL (≈ 1.04 µM)
- MIC (proteus vulgaris): 31.3 µg/mL (≈ 66.7 µM)
- MIC (bordetella brochiseptica): 15.6 µg/mL (≈ 33.2 µM)
- MIC (neisseria catarrhalis; [2]): 31.3 µg/mL (≈ 66.7 µM)
- MIC (enterobacter aerogenes): 7.81 µg/mL (≈ 16.6 µM)
- MIC (herellea species): 31.3 µg/mL (≈ 66.7 µM)
- MIC (escherichia intermedia): 62.5 µg/mL (≈ 133 µM)
